Test results taken from PubChem BioAssay AID328 (DTP/NCI, 2004).
Where “and” joins values, the source holds several entries; their conditions need not be identical. Equal values may be shown once. Inconclusive results and toxic doses are left out. Rule for the calls: active = survival T/C of 150% or more; inactive = T/C below 125% in these data. Residues, ends and D or L forms follow the SMILES beside them.

Test system: BDF1 mice, P388 leukemia ip, median survival T/C
Assay: NCI In Vivo Anticancer Drug Screen. Data for tumor model P388 Leukemia (intraperitoneal) in B6D2F1 (BDF1) mice
Settings: endpoint: median survival time, higher = longer survival
Procedure, shortened: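 Mice carrying the transplantable tumour receive compound or vehicle. Survival is followed in each arm, and the treated measure is divided by the vehicle measure.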

[1] = dose: 6.25 mg/kg/injection, schedule: Q01DX009 (ip), vehicle: saline with Tween-80
[2] = dose: 12.5 mg/kg/injection, schedule: Q01DX009 (ip), vehicle: saline with Tween-80
[3] = dose: 25.0 mg/kg/injection, schedule: Q01DX009 (ip), vehicle: saline with Tween-80
[4] = dose: 50.0 mg/kg/injection, schedule: Q01DX009 (ip), vehicle: saline with Tween-80
[5] = dose: 100.0 mg/kg/injection, schedule: Q01DX009 (ip), vehicle: saline with Tween-80
[6] = dose: 200.0 mg/kg/injection, schedule: Q01DX009 (ip), vehicle: saline with Tween-80
[7] = dose: 12.5 mg/kg/injection, schedule: Q01DX009 (ip), vehicle: water
[8] = dose: 25.0 mg/kg/injection, schedule: Q01DX009 (ip), vehicle: water
[9] = dose: 50.0 mg/kg/injection, schedule: Q01DX009 (ip), vehicle: water
[10] = dose: 100.0 mg/kg/injection, schedule: Q01DX009 (ip), vehicle: saline
[11] = dose: 200.0 mg/kg/injection, schedule: Q01DX009 (ip), vehicle: saline
[12] = dose: 25.0 mg/kg/injection, schedule: Q01DX009 (ip), vehicle: saline
[13] = dose: 50.0 mg/kg/injection, schedule: Q01DX009 (ip), vehicle: saline
[14] = dose: 25.0 mg/kg/injection, schedule: Q04DX003 (ip), vehicle: saline

Measured: T/C

Cc1ccc(NO)c(C)c1
inactive: dose: 50.0 mg/kg/injection, schedule: Q01DX005 (ip), vehicle: saline with Tween-80 113 % of control | dose: 100.0 mg/kg/injection, schedule: Q01DX005 (ip), vehicle: saline with Tween-80 108 % of control

COc1cccc2c(Cl)c(CCl)c(C)nc12
inactive: [1] 94 % of control | [2] 110 % of control | [3] 103 % of control | [4] 103 % of control | [5] 103 % of control

C=C1C(=O)OC2CC(C)C3CCC(=O)C3(C)C(O)C12 (stereo not given)
inactive: dose: 4.0 mg/kg/injection, schedule: Q01DX009 (ip), vehicle: Klucel (hydroxypropylcellulose) (HPC) 90 % of control | dose: 8.0 mg/kg/injection, schedule: Q01DX009 (ip), vehicle: Klucel (hydroxypropylcellulose) (HPC) 95 % of control | dose: 16.0 mg/kg/injection, schedule: Q01DX009 (ip), vehicle: Klucel (hydroxypropylcellulose) (HPC) 104 % of control | dose: 32.0 mg/kg/injection, schedule: Q01DX009 (ip), vehicle: Klucel (hydroxypropylcellulose) (HPC) 111 % of control

CC1=CC(=O)c2c(O)ccc(O)c2C1=O
inactive: dose: 1.25 mg/kg/injection, schedule: Q01DX009 (ip), vehicle: alcohol 114 % of control | dose: 2.5 mg/kg/injection, schedule: Q01DX009 (ip), vehicle: alcohol 122 % of control

CCCCCC1c2c(cc(C)[nH]c2=O)OC(O)C1CCCC (stereo not given)
inactive: [4] 93 % of control | [5] 90 % of control | [6] 94 % of control

NC(=O)c1ncc[nH]c1=O
inactive: dose: 50.0 mg/kg/injection, schedule: Q04DX003 (ip), vehicle: saline with Tween-80 100 % of control | dose: 100.0 mg/kg/injection, schedule: Q04DX003 (ip), vehicle: saline with Tween-80 100 % of control | dose: 200.0 mg/kg/injection, schedule: Q04DX003 (ip), vehicle: saline with Tween-80 105 % of control

C[n+]1c(-c2ccc(Cl)cc2Cl)c2cc([N+](=O)[O-])ccc2c2ccccc21
inactive: dose: 3.12 mg/kg/injection, schedule: Q01DX009 (ip), vehicle: water 104 % of control | dose: 6.25 mg/kg/injection, schedule: Q01DX009 (ip), vehicle: water 88 % of control and 104 % of control and 112 % of control | [7] 110 % of control and 119 % of control | [8] 104 % of control (2×) and 112 % of control | [9] 101 % of control

NC(=O)OCc1c(O)c2c(c(O)c1COC(N)=O)C(=O)C=CC2=O
inactive: [7] 111 % of control | dose: 12.5 mg/kg/injection, schedule: Q04DX003 (ip), vehicle: water 100 % of control | [8] 92 % of control | dose: 25.0 mg/kg/injection, schedule: Q04DX003 (ip), vehicle: water 104 % of control | [9] 104 % of control | dose: 50.0 mg/kg/injection, schedule: Q04DX003 (ip), vehicle: water 101 % of control | dose: 100.0 mg/kg/injection, schedule: Q04DX003 (ip), vehicle: water 100 % of control | dose: 200.0 mg/kg/injection, schedule: Q04DX003 (ip), vehicle: water 102 % of control and 113 % of control | dose: 300.0 mg/kg/injection, schedule: Q04DX003 (ip), vehicle: water 95 % of control | dose: 400.0 mg/kg/injection, schedule: Q04DX003 (ip), vehicle: water 108 % of control

COC(=O)C(NC(=O)C(NC(=O)C(N)C(C)C)C(C)C)C(C)C (stereo not drawn) (H-Val-Val-Val-OMe; configuration not given here)
inactive: dose: 50.0 mg/kg/injection, schedule: Q01DX005 (ip), vehicle: saline 101 % of control | dose: 100.0 mg/kg/injection, schedule: Q01DX005 (ip), vehicle: saline 99 % of control | dose: 200.0 mg/kg/injection, schedule: Q01DX005 (ip), vehicle: saline 92 % of control

CCCCCCCCC(O)CCC (stereo not given)
inactive: [10] 100 % of control | [11] 109 % of control

COc1ccc(/C=C/C(=O)c2ccc3cc(OC)c(OC)cc3c2)cc1OC
inactive: [12] 98 % of control | [13] 91 % of control | [10] 87 % of control | [11] 100 % of control | dose: 400.0 mg/kg/injection, schedule: Q01DX009 (ip), vehicle: saline 91 % of control

NC(N)=N/N=C/c1ccc(Cl)c(Cl)c1
inactive: dose: 6.25 mg/kg/injection, schedule: Q01DX009 (ip), vehicle: Klucel (hydroxypropylcellulose) (HPC) 102 % of control | dose: 12.5 mg/kg/injection, schedule: Q01DX009 (ip), vehicle: Klucel (hydroxypropylcellulose) (HPC) 100 % of control | dose: 25.0 mg/kg/injection, schedule: Q01DX009 (ip), vehicle: Klucel (hydroxypropylcellulose) (HPC) 94 % of control | dose: 50.0 mg/kg/injection, schedule: Q01DX009 (ip), vehicle: Klucel (hydroxypropylcellulose) (HPC) 100 % of control

NC(=O)NOCC(N)C(=O)O (stereo not given)
inactive: dose: 100.0 mg/kg/injection, schedule: Q04DX003 (ip), vehicle: saline 104 % of control | dose: 200.0 mg/kg/injection, schedule: Q04DX003 (ip), vehicle: saline 100 % of control | dose: 400.0 mg/kg/injection, schedule: Q04DX003 (ip), vehicle: saline 104 % of control

O=C(O)/C=C\c1c[nH]c2nccnc12
inactive: dose: 12.5 mg/kg/injection, schedule: Q01DX009 (ip), vehicle: saline 103 % of control | [12] 95 % of control | [14] 97 % of control | [13] 95 % of control | dose: 50.0 mg/kg/injection, schedule: Q04DX003 (ip), vehicle: saline 100 % of control

COc1cc(O)c2c(c1)C(=O)c1cc3c(c(O)c1C2=O)C(OC1OC(C)C(OC)C(O)C1OC)C(OC)C(C)(O)C3=O (stereo not given)
inactive: dose: 17.5 mg/kg/injection, schedule: Q01DX009 (ip), vehicle: saline 86 % of control | dose: 35.0 mg/kg/injection, schedule: Q01DX009 (ip), vehicle: saline 93 % of control | [4] 97 % of control | dose: 70.0 mg/kg/injection, schedule: Q01DX009 (ip), vehicle: saline 93 % of control | [5] 120 % of control | [6] 116 % of control

CC1OCC(Br)([N+](=O)[O-])CO1 (stereo not given)
inactive: dose: 12.5 mg/kg/injection, schedule: Q04DX003 (ip), vehicle: saline 99 % of control | [14] 107 % of control

O=C(/C=C/c1ccccc1)NC(CO)Cc1ccccc1 (stereo not given)
inactive: [1] 90 % of control | [2] 92 % of control | [3] 101 % of control | [5] 100 % of control | [6] 100 % of control

CCC[CH2][Hg][O]C(C)=O
inactive: dose: 3.13 mg/kg/injection, schedule: Q01DX009 (ip), vehicle: saline with Tween-80 115 % of control | dose: 3.13 mg/kg/injection, schedule: Q04DX003 (ip), vehicle: saline sonified 110 % of control | dose: 4.16 mg/kg/injection, schedule: Q01DX009 (ip), vehicle: saline 114 % of control | dose: 6.25 mg/kg/injection, schedule: Q01DX009 (ip), vehicle: saline 114 % of control | dose: 6.25 mg/kg/injection, schedule: Q04DX003 (ip), vehicle: saline sonified 120 % of control | dose: 8.25 mg/kg/injection, schedule: Q04DX003 (ip), vehicle: saline sonified 109 % of control | [2] 100 % of control | dose: 12.5 mg/kg/injection, schedule: Q04DX003 (ip), vehicle: saline sonified 118 % of control

O=[N+]([O-])c1c(Cl)cccc1-c1c[nH]cc1Cl
inactive: dose: 100.0 mg/kg/injection, schedule: Q01DX009 (ip), vehicle: Klucel (hydroxypropylcellulose) (HPC) 95 % of control | dose: 200.0 mg/kg/injection, schedule: Q01DX009 (ip), vehicle: Klucel (hydroxypropylcellulose) (HPC) 95 % of control | dose: 400.0 mg/kg/injection, schedule: Q01DX009 (ip), vehicle: Klucel (hydroxypropylcellulose) (HPC) 86 % of control
